Data on four compounds can be found in paper PMC12720098, “Prolintane analogs as hybrid monoamine transporter ligands: Structural determinants and species differences” (The Journal of Biological Chemistry, 2025).

Entries after “also recorded” stand apart in the source; their conditions may differ. Structures can show the parent of a compound that is named as a salt. Where two headings read alike, the source gives them in different places.

The target of one experiment is T1, hDAT (Homo sapiens, UniProt Q01959).
T1 construct: expressed in transfected cells
T1 sequence (Q01959 whole entry): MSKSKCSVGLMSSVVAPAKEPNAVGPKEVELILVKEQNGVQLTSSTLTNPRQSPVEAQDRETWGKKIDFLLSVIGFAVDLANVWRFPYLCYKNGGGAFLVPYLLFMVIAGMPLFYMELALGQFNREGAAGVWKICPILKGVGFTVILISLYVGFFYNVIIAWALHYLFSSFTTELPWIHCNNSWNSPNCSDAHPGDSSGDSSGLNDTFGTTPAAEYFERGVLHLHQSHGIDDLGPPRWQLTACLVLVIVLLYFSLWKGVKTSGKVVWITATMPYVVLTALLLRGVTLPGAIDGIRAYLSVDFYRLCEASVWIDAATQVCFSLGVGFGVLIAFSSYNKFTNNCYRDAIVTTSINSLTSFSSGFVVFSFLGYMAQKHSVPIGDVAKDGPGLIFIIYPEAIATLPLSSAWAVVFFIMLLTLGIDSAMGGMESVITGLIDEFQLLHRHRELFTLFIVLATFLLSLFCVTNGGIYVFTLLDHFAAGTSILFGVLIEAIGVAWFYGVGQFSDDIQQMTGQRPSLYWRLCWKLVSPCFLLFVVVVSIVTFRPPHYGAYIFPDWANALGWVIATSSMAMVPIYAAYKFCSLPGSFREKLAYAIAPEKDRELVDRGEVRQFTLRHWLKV
Nature of the experiment: Batch release assay ([3H]MPP+) in transfected HEK293 cells. The conditions noted are these: % efflux of total uptake, compounds approximately at IC50 concentration. The class given is cell-based. Here is the method: (§1) Batch release assays were performed as described previously ([44]). In brief, HEK293 cells stably expressing monoamine transporters were seeded similar to the procedure used for uptake inhibition assays. A day after seeding cells were pre-loaded with 50 μl/well 0.015 μM [^3H]MPP^+ (hDAT, hNET), or 0.08 μM [^3H]5-HT (hSERT) for 20 min at 37 °C. Then cells were washed four times for 3 to 4 min each and further incubated with KHB or KHB + monensin. After 10 min of incubation, two (screening) to four (full traces; hSERT) 2 min incubations were performed to establish a baseline release without substance. […] Each fraction was transferred to an empty well in the 96-well plate. For screening, a known inhibitor (hDAT, hNET: 50 μM GBR12909) and releaser (hDAT, hNET: 10 μM S-(+)-amphetamine) were used as controls. Ultima Gold XR scintillation cocktail was added to the remaining cells, and each well contained a release fraction. The counted radioactivity in the respective fraction was expressed as a percentage of total radioactivity at the start of the fraction.
(§2) Half-maximal inhibitory concentrations (IC50) were obtained from fitting a sigmoidal dose–response ( Y=Bottom+Top−Bottom/1+10^((LogIC50−X)·HillSlope) ) in GraphPad Prism 10.3.1 (GraphPad Software Inc.). Uptake inhibition data were evaluated by one-way ANOVA followed by Tukey's multiple comparisons test. Release data were analyzed using a two-way ANOVA (batch release) or a mixed-effects model with Geisser-Greenhouse correction (time-dependent traces) employing Šidák correction for comparing differences between compounds with or without the addition of monensin.

A further experiment concerns the target T2, hNET (Homo sapiens, UniProt P23975).
T2 construct: expressed in transfected cells
The description is as above. The conditions noted are these: % efflux of total uptake, compounds approximately at IC50 concentration. The experiment is classed as cell-based. Here is the method: as §1, §2

The next experiment concerns the target T3, hSERT (Homo sapiens, UniProt P31645).
T3 construct: expressed in transfected cells
The class given is cell-based. Here is the method:
as §1, §2

A further experiment has as its target rSERT (Rattus norvegicus, UniProt P31652). The experiment is classed as cell-based. Set-up: expressed in transfected cells. The conditions noted are these: for Mean diff, rSERT efflux ± Mon (Šídák's multiple comparisons test): drug alone vs drug + monensin (Mon). Here is the method:
A day prior to the experiment, HEK293 cells stably expressing hSERT or rat SERT (rSERT) were seeded at a density of 100,000 cells per channel into 6 channel flow ibidi slides (Gräfelfing, Germany). On the day of the experiments, cells were preloaded with 0.1 μM [^3H]5-HT at 37 °C, 5% CO2 for 20 min. Subsequently, the slides were transferred to the superfusion apparatus ([59]). Cells were then washed with KHB for 15 min under a constant flow of 0.5 ml/min. Fractions were collected every 2 min in 8 ml vials containing 2 ml scintillation cocktail. Collection began with three baseline fractions using KHB, followed by four additional basal release fractions with KHB, either with or without 10 μM monensin. […] To assess residual radioactivity within the cells, they were lysed with 1% sodium dodecyl sulfate (SDS), and three final fractions were obtained. The measured tritiated substrate in each fraction was expressed as a percentage of the initial tritiated substrate present at the start of that fraction.
Uptake inhibition data were evaluated by one-way ANOVA followed by Tukey's multiple comparisons test. Release data were analyzed using a two-way ANOVA (batch release) or a mixed-effects model with Geisser-Greenhouse correction (time-dependent traces) employing Šidák correction for comparing differences between compounds with or without the addition of monensin.

The next experiment deals with native HEK293 cells. As to the kind of experiment: Whole-cell patch-clamp control in native HEK293 cells without transfection. The class given is cell-based, human. Conditions: prolintane 30 µM, 5-HT 10 µM (Fig. S3). Here is the method:
One day prior to recording, either native HEK293 cells or HEK293 cells stably expressing monoamine transporters were seeded at low density onto PDL-coated 35 mm dishes. Patch-clamp experiments were conducted at a holding potential of −60 mV, with substrate-induced currents recorded at room temperature (20–24 °C) using an […] amplifier and pClamp 11.2 software (MDS Analytical Technologies). During recordings, cells were continuously superfused via a DAD-12 perfusion system and an 8-tube manifold (ALA Scientific Instruments), delivering an external solution composed of 140 mM NaCl, 2.5 mM CaCl2, 3 mM KCl, 2 mM MgCl2, 20 mM glucose, and 10 mM HEPES, with pH adjusted to 7.3 using NaOH. The intracellular pipette solution, designed to mimic physiological ionic conditions, contained 133 mM potassium gluconate, 5.9 mM NaCl, 1 mM CaCl2, 0.7 mM MgCl2, 10 mM HEPES, and 10 mM EGTA, with pH set to 7.2 using KOH. Currents were filtered at 1 kHz and digitized at 10 kHz via a Digidata 1550 digitizer (MDS Analytical Technologies), followed by analysis in Clampfit 10.2 (Molecular Devices). Substance-induced currents were normalized to the current elicited by a saturating concentration of 5-HT (10 μM) of the same cell. Holding currents were subtracted, and a 50 Hz digital Gaussian low-pass filter was applied to the traces for further analysis.

Chain of rSERT (P31652 whole entry, the tested form may be a part): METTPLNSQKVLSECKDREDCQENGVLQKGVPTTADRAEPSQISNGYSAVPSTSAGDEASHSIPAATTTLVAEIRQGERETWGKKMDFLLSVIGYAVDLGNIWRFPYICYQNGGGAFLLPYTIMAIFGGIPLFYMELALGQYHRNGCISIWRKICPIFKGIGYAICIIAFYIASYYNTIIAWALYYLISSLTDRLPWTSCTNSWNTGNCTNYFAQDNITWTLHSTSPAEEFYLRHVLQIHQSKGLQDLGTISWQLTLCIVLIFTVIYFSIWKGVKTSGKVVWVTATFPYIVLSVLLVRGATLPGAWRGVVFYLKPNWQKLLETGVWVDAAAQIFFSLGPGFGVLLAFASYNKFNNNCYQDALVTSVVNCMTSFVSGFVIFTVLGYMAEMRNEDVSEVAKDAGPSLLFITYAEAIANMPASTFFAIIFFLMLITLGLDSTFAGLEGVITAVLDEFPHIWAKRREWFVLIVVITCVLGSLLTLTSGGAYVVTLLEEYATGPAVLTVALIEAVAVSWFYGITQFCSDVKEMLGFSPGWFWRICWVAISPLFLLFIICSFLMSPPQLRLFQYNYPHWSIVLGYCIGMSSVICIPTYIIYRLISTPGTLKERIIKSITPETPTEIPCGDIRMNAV
T2 sequence (P23975 whole entry): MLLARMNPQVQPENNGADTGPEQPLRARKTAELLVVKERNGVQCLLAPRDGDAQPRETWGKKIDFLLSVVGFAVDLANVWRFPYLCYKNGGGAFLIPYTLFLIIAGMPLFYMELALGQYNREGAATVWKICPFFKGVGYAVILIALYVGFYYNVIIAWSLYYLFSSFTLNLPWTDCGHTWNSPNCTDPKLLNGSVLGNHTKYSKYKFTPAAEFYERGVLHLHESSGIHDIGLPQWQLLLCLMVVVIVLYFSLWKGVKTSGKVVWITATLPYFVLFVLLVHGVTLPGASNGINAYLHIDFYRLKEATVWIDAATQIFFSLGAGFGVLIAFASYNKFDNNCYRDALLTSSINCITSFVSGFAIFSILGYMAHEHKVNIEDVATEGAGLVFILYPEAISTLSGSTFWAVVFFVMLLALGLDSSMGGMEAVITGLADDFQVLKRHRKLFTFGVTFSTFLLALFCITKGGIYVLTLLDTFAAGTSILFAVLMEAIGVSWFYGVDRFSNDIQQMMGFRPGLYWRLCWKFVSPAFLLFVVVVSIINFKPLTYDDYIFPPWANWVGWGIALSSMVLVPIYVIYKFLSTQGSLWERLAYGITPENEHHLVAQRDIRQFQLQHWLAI
T3 sequence (P31645 whole entry): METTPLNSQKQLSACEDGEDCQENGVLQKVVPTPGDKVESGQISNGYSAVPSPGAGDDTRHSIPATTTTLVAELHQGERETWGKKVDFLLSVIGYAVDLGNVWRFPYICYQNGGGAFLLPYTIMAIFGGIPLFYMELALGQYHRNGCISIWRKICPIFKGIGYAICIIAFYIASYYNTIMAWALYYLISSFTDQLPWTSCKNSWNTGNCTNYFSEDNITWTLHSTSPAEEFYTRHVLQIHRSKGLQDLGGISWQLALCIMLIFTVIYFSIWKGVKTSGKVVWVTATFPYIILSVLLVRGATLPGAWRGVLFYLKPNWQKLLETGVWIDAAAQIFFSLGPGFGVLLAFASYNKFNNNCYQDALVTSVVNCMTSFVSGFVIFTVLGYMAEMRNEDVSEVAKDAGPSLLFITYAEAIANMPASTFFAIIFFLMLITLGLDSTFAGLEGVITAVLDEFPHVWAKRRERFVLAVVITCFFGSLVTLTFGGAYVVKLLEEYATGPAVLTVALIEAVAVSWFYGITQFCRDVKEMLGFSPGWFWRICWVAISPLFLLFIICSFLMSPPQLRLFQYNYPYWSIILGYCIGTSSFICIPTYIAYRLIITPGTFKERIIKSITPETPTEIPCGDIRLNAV

Regarding `C[C@H](N)Cc1ccccc1` [S-(+)-amphetamine, dextroamphetamine hemi sulfate salt, reference compound], the “hDAT-mediated efflux, predicted (LS) mean diff, No mon - Mon” value at hDAT is listed as -1.735. The “hNET-mediated efflux, predicted (LS) mean diff, No mon - Mon” value on hNET is on record as -5.397.

On to `CC(N)Cc1ccc(Cl)cc1` (stereo not shown) [pCA, para-chloroamphetamine], for which the “hSERT-mediated efflux, predicted (LS) mean diff, No mon - Mon” value at hSERT is on record as -18.87. Besides, the “Mean diff, rSERT efflux ± Mon (Šídák's multiple comparisons test)” value at rSERT (Row 1 (time fraction)) is reported as 0.1306; on rSERT (Row 2 (time fraction)) it was 0.1761; at rSERT (Row 3 (time fraction)), 0.2854; at rSERT (Row 4 (time fraction)), 0.1377; on rSERT (Row 5 (time fraction)), -0.4218; on rSERT (Row 6 (time fraction)), -0.8916. The “Mean diff, rSERT efflux ± Mon (Šídák's multiple comparisons test)” value on rSERT (Row 7 (time fraction)) was -1.153; on rSERT (Row 8 (time fraction)) it was -7.649; at rSERT (Row 9 (time fraction)) it was -4.816; at rSERT (Row 10 (time fraction)), -3.007; on rSERT (Row 11 (time fraction)) it was -2.599; on rSERT (Row 12 (time fraction)) it was -2.043. Moreover, the “magnitude of [3H]5-HT release in cells expressing rSERT compared to hSERT” value on rSERT (superfusion, HEK293 cells) is given as “significantly lower magnitude”.

Take `Fc1ccc(C(OCCN2CCN(CCCc3ccccc3)CC2)c2ccc(F)cc2)cc1` [GBR12909, vanoxerine, reference compound]: on hDAT, the “hDAT-mediated efflux, predicted (LS) mean diff, No mon - Mon” value is reported as -0.7725. Besides, the “hNET-mediated efflux, predicted (LS) mean diff, No mon - Mon” value on hNET was -0.7072.

In the case of `NCCc1c[nH]c2ccc(O)cc12` [5-HT, serotonin], in the experiment on native HEK293 cells, the “current in native HEK293 cells without transfection” value is listed as “no current could be recorded; also recorded: do not induce currents”.
